Laboratory results: patent EP4678629A1, “IONIZABLE LIPID MOLECULE, PREPARATION METHOD THEREFOR AND USE THEREOF” (Maxirna (Shanghai) Pharmaceutical Co., Ltd., priority 2023, dated 2024)

How the values were obtained:
[1] = Size and polydispersity index (PDI) of the lipid nanoparticle by dynamic light scattering; format: physicochemical; details: LNP encapsulating eGFP mRNA, ionizable lipid/DOPE/cholesterol/DMG-PEG2000 50/10/48.25/1.25 mol%, N/P 12; for Particle size: in nm (unit assumed)
Procedure: (§1) The ionizable lipid compound and positive control 1 from Example I were dissolved in ethanol at a molar ratio of 50:10:48.25:1.25 with DOPE, cholesterol, and DMG-PEG2000 (all purchased from A.V.T (Shanghai) Pharmaceutical Co., Ltd.) to prepare an ethanol lipid solution. The enhanced green fluorescent protein (eGFP) mRNA was diluted in 20 mM citrate buffer (pH=6.1) to obtain an mRNA aqueous solution. By using a microfluidic device (Micro&Nano Biologics Co., Ltd., model: INano ™ L) mix ethanol lipid solution and mRNA aqueous solution in a volume ratio of 1:3 to prepare a lipid nanoparticle with a total lipid to mRNA N/P ratio of 12. The medium was replaced by ultrafiltration, ethanol was removed and volumed with DPBS. Finally, the lipid nanoparticle was filtered through a 0.2 µm sterile filter to obtain an LNP preparation encapsulating eGFP mRNA using ionizable lipid/DOPE/cholesterol/DMG-PEG2000 (50/10/48.25/1.25 mol%), with an mRNA content of 0.002 mg/ml-0.5 mg/mL.
(§2) Using Malvern Zetasizer Nano ZS (Malvern UK), the size and polydispersity index (PDI) of the lipid nanoparticle were determined by dynamic light scattering in 173° backscatter detection mode, and the encapsulation efficiency was measured by Ribogreen method.

[2] = Encapsulation efficiency of the lipid nanoparticle (eGFP mRNA) by Ribogreen method; format: physicochemical; details: LNP encapsulating eGFP mRNA, ionizable lipid/DOPE/cholesterol/DMG-PEG2000 50/10/48.25/1.25 mol%, N/P 12
Procedure: as §1, §2

[3] = In vitro transfection of cells with eGFP-mRNA lipid nanoparticle (LNP preparation), fluorescence imaging and flow cytometry; format: cell-based, mouse; details: mouse, dc2.4 cells, 200 ng of mRNA per well, after 24 hours; read-out: Cell viability, %
Text: (§3) This example used mouse bone marrow-derived dendritic cells DC2.4 (purchased from Millipore) as the validation cell line for a lipid nanoparticle transfection experiment. DC2.4 cells adhered to the wall for growth. All operational steps of cell culture strictly followed the prescribed procedures, using sterile reagents for aseptic operations under a sterile workbench. The main operational steps involved were as follows: • 1) Cell recovery: the preserved cell cryopreservation solution was removed from the -80 °C freezer and immediately placed in a 37 °C water bath for rapid and continuous shaking, allowing it to completely melt within one minute. Fresh culture medium was added to a 15 mL centrifuge tube in advance, and the cell fluid was added to the centrifuge tube in a biosafety cabinet. A centrifuge tube of the same mass was taken, placed symmetrically in the centrifuge, and centrifuged at low speed for 5 minutes at 1200 rpm. After centrifugation, the upper clear liquid was removed, and an appropriate amount of culture medium was slowly added along the tube wall. After the cells were gently blown and dispersed evenly, the cell suspension was drawn and added to the prepared culture bottle. The state and distribution of cells in the early stage of recovery were observed under a microscope. The culture bottle was incubated in a 5% CO2 incubator at 37 °C, and the recovery time was recorded. • 2) Cell passaging: Under a microscope, if the cell density in the field of view reached 80%-90%, cells could be passaged and cultured. Adherent cells required trypsin digestion. In order to avoid residual serum in the culture medium reducing trypsin activity, the original culture medium was removed, and DPBS solution was added to wash once. After suctioning out the DPBS solution, trypsin was added to degrade the protein at the intercellular junction, thereby separating the cells and facilitating further cultivation. The mixture was gently shaken well and placed into the incubator for digestion for 2-3 minutes. After digestion was complete, an appropriate amount of culture medium was immediately added to the original culture dish to terminate digestion. Finally, a pipette was used to carefully blow off the cells and blow them until they were evenly dispersed, and then the cells were inoculated and subcultured in a certain proportion according to experimental requirements.
(§4) Transfection of DC2.4 cells • 1) DC2.4 cell recovery: the frozen DC2.4 cells were taken out from the -80 °C refrigerator and immediately put into a 37 °C water bath for rapid thawing. After melting, they were added to the preheated culture medium, and centrifuged at 1200 rpm for 5 minutes. The supernatant was discarded, and an appropriate amount of DMEM medium containing 10% FBS was added to resuspend the recovered DC2.4 cells, which were placed in a 37 °C, 5% CO2 incubator for activation culture. • 2) According to experimental requirements, DC2.4 cells were transfected into 24 well plates one day in advance. By counting cells, the number and viability of cells were recorded, and a cell suspension with 2 × 10^5 cells per well were taken. Then, a certain volume of DMEM medium containing 10% FBS was added and mixed evenly, wherein 1 mL was added per well for subsequent transfection experiments. • 3) After 24 hours, the culture medium was gently aspirated with a pipette 30 minutes in advance, and each well was washed with 1 mL of DPBS and aspirated. […] The mixture was placed in a 37 °C, 5% CO2 incubator for activation cultivation. • 6) After 24 hours, cell viability (%), eGFP positivity rate (%), and mean fluorescence intensity data were obtained through cell fluorescence imaging and flow cytometry.

DC2.4 cells = test: as above; format: cell-based, mouse; details: eGFP positivity rate, DC2.4 cells, 200 ng of mRNA per well, after 24 hours
Text: as §3, §4

Row | Structure (SMILES) | PDI [1] | Encapsulation rate, % [2] | Particle size [1] | viability at 24 h [3] | Positive rate, % (DC2.4 cells)
1 | CCCCC/C=C\C/C=C\CCCCCCCCOC(=O)CCCCCCCN(CCO)CCCN(CCCCCCCC(=O)OCCCCCCCC/C=C\C/C=C\CCCCC)CCCCCCCC(=O)OCCCCCCCC/C=C\C/C=C\CCCCC [Example 24, Di((9Z,12Z)-octadeca-9,12-dien-1-yl)8,8'-((3-((2-hydroxyethyl)(8-(((9Z,12Z)-octadeca-9,12-dien-1-yl)oxo)-8-oxooctyl)amino)propyl)azanediyl)dioctanoate] | 0.15 | 97.73% |  | 76% | 92.27%
2 | CCCCCC/C=C\COC(=O)CCCCCN(CCO)CCCN(CCCCCC(=O)OC/C=C\CCCCCC)CCCCCC(=O)OC/C=C\CCCCCC [Example 25, Di((Z)-non-2-en-1-yl)6,6'-((3-((2-hydroxyethyl)(6-(((Z)-non-2-en-1-yl)oxo)-6-oxohexyl)amino)propyl)azanediyl)dihexanoate] | 0.17 | 98.27% |  | 76.6% | 94.29%
3 | CCCCCCCCCCCCCOC(=O)CCCCCN(CCO)CCCN(CCCCCC(=O)OCCCCCCCCCCCCC)CCCCCC(=O)OCCCCCCCCCCCCC [Example 26, Ditridecyl 6,6'-((3-((2-hydroxyethyl)(6-oxo-6-(tridecyloxy)hexyl)amino)propyl)azanediyl)dihexanoate] | 0.09 | 99.66% | 95.80 | 98.1% | 95.84%
4 | CCCCCCCCCCCOC(=O)CCCCCN(CCCO)CCCN(CCCCCC(=O)OCCCCCCCCCCC)CCCCCC(=O)OCCCCCCCCCCC [Example 27, Diundecyl 6,6'-((3-((3-hydroxypropyl)(6-oxo-6-(undecyloxy)hexyl)amino)propyl)azanediyl)dihexanoate] | 0.12 | 99.65% | 88.43 | 98.2% | 97.36%
5 | CCCCCCCCCCCOC(=O)CCCCCN(CCCCO)CCCN(CCCCCC(=O)OCCCCCCCCCCC)CCCCCC(=O)OCCCCCCCCCCC [Example 28, Diundecyl 6,6'-((3-((4-hydroxybutyl)(6-oxo-6-(undecyloxy)hexyl)amino)propyl)azanediyl)dihexanoate] | 0.17 | 99.47% |  | 92.9% | 97.51%
6 | CCCCCCCCCCCCCOC(=O)CCCCCCCN(CCCO)CCCN(CCCCCCCC(=O)OCCCCCCCCCCCCC)CCCCCCCC(=O)OCCCCCCCCCCCCC [Example 29] | 0.16 | 99.55% |  | 96.7% | 95.33%
7 | CCCCCCCCCCCCCOC(=O)CCCCCN(CCCO)CCCN(CCCCCC(=O)OCCCCCCCCCCCCC)CCCCCC(=O)OCCCCCCCCCCCCC [Example 30, 6,6'-((3-((3-hydroxypropyl)(6-oxo-6-(tridecyloxy)hexyl)amino)propyl)azadiyl)ditridecyl dihexanoate] | 0.09 | 99.66% |  | 96.9% | 96.41%
8 | CCCCCCCCCCCCCOC(=O)CCCCCN(CCCCO)CCCN(CCCCCC(=O)OCCCCCCCCCCCCC)CCCCCC(=O)OCCCCCCCCCCCCC [Example 31, 6,6'-((3-((4-hydroxybutyl)(6-oxo-6-(tridecyloxy)hexyl)amino)propyl)azadiyl)ditridecyl dihexanoate] | 0.15 | 99.36% | 84.05 | 94.4% | 97.43%
9 | CCCCCCCCCCCOC(=O)CCCCCCN(CCO)CCCN(CCCCCCC(=O)OCCCCCCCCCCC)CCCCCCC(=O)OCCCCCCCCCCC [Example 32] | 0.13 | 99.30% | 83.34 | 96.6% | 95.28%
10 | CCCCCCCCCCCCCOC(=O)CCCCCCN(CCO)CCCN(CCCCCCC(=O)OCCCCCCCCCCCCC)CCCCCCC(=O)OCCCCCCCCCCCCC [Example 33] | 0.13 | 98.96% |  | 96.4% | 95.18%

Continued, in another order:

Row | PDI [1] | Encapsulation rate, % [2] | Particle size [1] | Structure (SMILES) | viability at 24 h [3] | Positive rate, % (DC2.4 cells)
11 | 0.16 | 99.39% | 82.74 | CCCCCCCCCCCCCOC(=O)CCCCCCN(CCCO)CCCN(CCCCCCC(=O)OCCCCCCCCCCCCC)CCCCCCC(=O)OCCCCCCCCCCCCC [Example 34] | 95% | 93.19%
12 | 0.12 | 99.50% | 92.18 | CCCCCCCCCCCCCOC(=O)CCCCCCN(CCCCO)CCCN(CCCCCCC(=O)OCCCCCCCCCCCCC)CCCCCCC(=O)OCCCCCCCCCCCCC [Example 35] | 97.2% | 98.59%
13 | 0.16 | 99.39% | 89.30 | CCCCCCCCCCCOC(=O)CCCCCCN(CCCO)CCCN(CCCCCCC(=O)OCCCCCCCCCCC)CCCCCCC(=O)OCCCCCCCCCCC [Example 36] | 94.2% | 93.6%
14 | 0.15 | 99.26% | 77.57 | CCCCCCCCCCCOC(=O)CCCCCCN(CCCCO)CCCN(CCCCCCC(=O)OCCCCCCCCCCC)CCCCCCC(=O)OCCCCCCCCCCC [Example 37] | 96.6% | 89.37%
15 | 0.13 | 97.58% | 89.31 | CCCCCCCCCCCCCOC(=O)CCCCN(CCO)CCCN(CCCCC(=O)OCCCCCCCCCCCCC)CCCCC(=O)OCCCCCCCCCCCCC [Example 39, Ditridecyl 5,5'-((3-((2-hydroxyethyl)(5-oxo-5-(tridecyloxy)pentyl)amino)propyl)azadiyl)dipentanoate] | 96.9% | 91.26%
16 | 0.14 | 99.29% | 63.23 | CCCCCCCCCCCCCOC(=O)CCCCN(CCCO)CCCN(CCCCC(=O)OCCCCCCCCCCCCC)CCCCC(=O)OCCCCCCCCCCCCC [Example 40] | 97.7% | 99.14%
17 | 0.13 | 96.67% | 71.17 | CCCCCCCCCCCCCOC(=O)CCCCN(CCCCO)CCCN(CCCCC(=O)OCCCCCCCCCCCCC)CCCCC(=O)OCCCCCCCCCCCCC [Example 41, Ditridecyl 5,5'-((3-((4-hydroxybutyl)(5-oxo-5-(tridecyloxy)pentyl)amino)propyl)azadiyl)dipentanoate] | 97.2% | 96.42%
